For 11 molecules, IC50 and Ki results are on record in patent US8481527B2, “Benzamide derivatives as bradykinin antagonists” (Richter Gedeon Nyrt., priority 2006, dated 2013).

The target in assay [1] is T1, recombinant human B1 receptors (Homo sapiens, UniProt P46663).
T1 construct: host or cells: CHO (CHO-B1)
T1 sequence (P46663 1-353): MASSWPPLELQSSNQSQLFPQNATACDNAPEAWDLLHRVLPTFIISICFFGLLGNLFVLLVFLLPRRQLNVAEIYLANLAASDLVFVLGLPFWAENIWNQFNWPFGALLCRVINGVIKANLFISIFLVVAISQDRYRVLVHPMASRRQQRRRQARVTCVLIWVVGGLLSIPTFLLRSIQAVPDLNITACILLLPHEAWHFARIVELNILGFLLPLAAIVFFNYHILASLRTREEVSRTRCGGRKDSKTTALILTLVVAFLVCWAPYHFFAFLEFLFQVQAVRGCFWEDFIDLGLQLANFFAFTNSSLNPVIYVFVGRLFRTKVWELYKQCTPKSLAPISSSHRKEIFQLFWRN
As to the kind of experiment: Functional assay: antagonist potency by cytosolic calcium measurement in CHO-B1 cells (agonist LysDABK). It is filed as cell-based. On the procedure:
Assessment of Antagonist Potency at B1 and B2 Receptors In Vitro by Measurement of Cytosolic Calcium Ion Concentration with a Plate Reader Fluorimeter in Cells Expressing Recombinant Human B1 or B2 Receptors
Chinese hamster ovary (CHO) cells stably expressing recombinant human B1 (CHO-B1, Euroscreen) or B2 (CHO-B2, Perkin-Elmer) receptors were cultured in Dulbecco's Modified Eagle's Medium (DMEM) containing 10% Fetal Calf Serum (FCS), 100 U/ml penicillin, 0.1 mg/ml streptomycin, 0.25 μg/ml amphotericin B, 1% Minimum Essential Medium Eagle (MEM), non essential amino acid solution, 600 μg/ml G418, 1% pyruvate (for the B2 cell line). Cells were kept at 37° C. in a humidified incubator in an atmosphere of 5% CO2/95% air and were passaged 1:4 three times a week. Cells were plated at 1.5-2.5×10^4 cell/well on standard 96-well microplates, measurements of cytosolic calcium ion concentration ([Ca^2+]i) were carried out 1-2 days after cell plating.
Measurements of [Ca^2+]i were carried out on CHO-B1 and CHO-B2 cells stably expressing human B1 and B2 receptors, respectively. Cells were grown in standard 96-well microplates and before the measurement were loaded with a fluorescent Ca^2+-sensitive dye, fluo-4/AM (2 μM): after removing the culture medium the dye was added to the cells (dissolved in assay buffer: 145 mM NaCl, 5 mM KCl, 2 mM MgCl2, 2 mM CaCl2, 10 mM HEPES, 20 mM D-glucose, 2 mM probenecid, 100 μl/well) and cells were incubated at 37° C. in a humidified incubator in an atmosphere of 5% CO2/95% air for 40-120 min. To stop dye loading cells were washed twice with assay buffer. After washing, various concentrations of the test compounds (diluted in extracellular medium from a DMSO stock solution, final DMSO concentration was <0.1%) or buffer were added to each well depending on the experimental setup. After incubation at 37° C. for 20-25 min. baseline and agonist-evoked changes of [Ca^2+]i were measured column by column with a plate reader fluorimeter (Fluoroskan Ascent, Labsystems). Excitation and detection of emission was carried out from the bottom of the plate. Filters used for Fluo-4: excitation filter—485 nm, emission filter—538 nm. The whole measurement process was performed at 37° C. and was controlled by custom software. Inhibitory potency of the test compounds was assessed by measuring the reduction in the agonist-evoked [Ca^2+]i-elevation in the presence of different concentrations of the compounds. The agonists were LysDABK for CHO-B1, and bradykinin for CHO-B2 cells. Agonists were applied at an EC80 concentration, the EC80-values were derived from daily determined dose-response curves. Fluorescence data were expressed as ΔF/F (fluorescence change normalized to baseline). All treatments on a single plate were measured in multiple wells. Data from all wells with the same treatment were averaged and the average values were used for analysis. Inhibitory potency of a compound at a single concentration point was expressed as percent inhibition of the control agonist response. Sigmoidal concentration-inhibition curves were fitted to the data (derived from at least three independent experiments) and IC50-values were determined as the concentration that produces half of the maximal inhibition caused by the compound.

Assay [2] has as its target T2, human recombinant bradykinin B1 receptor (Homo sapiens, UniProt P46663).
T2 construct: purchased Euroscreen ES-091; host or cells: CHO cells
T2 sequence (P46663 1-353): T1 sequence (P46663 1-353)
As to the kind of experiment: Human recombinant bradykinin B1 receptor binding. As to the method:
Receptor Binding Assays 1. Human Recombinant Bradykinin B1 Receptor Binding
Binding assays were carried out on human recombinant bradykinin) receptors (expressed in CHO cells) according to the Euroscreen Technical Data Sheet (Cat.No.:ES-091). 20 μg protein/tube was incubated with [3,4-prolyl-3,4-^3H(N)]-[Des-Arg^10] Kallidin as radioligand. Non specific binding was determined in the presence of 10 μM Lys-des-Arg^9-Bradykinin. The final incubation volume was 250 μl. Samples were incubated for 15 min. at 25° C. then were rapidly vacuum filtered through GF/B filters presoaked for at least 1 h in 0.5% PEI. Radioactivity was determined by liquid scintillation spectroscopy.

[3] abbreviates: CHO-B1 cells, LysDABK at EC80, fluo-4 [Ca2+]i, read-out: B1 func.
Where [4] appears, read: CHO cell membranes, [3H]-[Des-Arg10] Kallidin radioligand, read-out: B1 binding.
Where [5] appears, read: reference compounds, functional test, read-out: IC50.
Setting [6] is: reference compounds, binding test, read-out: Ki.

Where a name gives a salt, the structure may show the parent alone. Read-outs that look alike come from different tables or passages of the source. Some results are limits rather than exact numbers.

In the case of `O=C(NCC(=O)N1CCCNCC1)c1ccc(S(=O)(=O)Nc2ccccc2C(=O)c2ccccc2)cc1` [Example 11.6, 4-(2-Benzoyl-phenylsulfamoyl)-N-(2-[1,4]diazepan-1-yl-2-oxo-ethyl)-benzamide hydrochloride], the IC50 in assay [1] (setting [3]) is less than 0.02 µM. Further, the Ki in assay [2] (setting [4]) is less than 0.02 µM.
For `NC(=O)C1CCN(C(=O)CNC(=O)c2ccc(S(=O)(=O)Nc3ccccc3Oc3ccccc3)cc2)CC1` [Example 2.15, 1-{2-[4-(2-Phenoxy-phenylsulfamoyl)-benzoylamino]-acetyl}-piperidine-4-carboxylic acid amide], in assay [1] (setting [3]), the IC50 was in the range of 0.02 to 0.1 µM. Also, the Ki in assay [2] (setting [4]) is 0.02 to 0.1 µM.
As to `CN1CCCC(CN2CCN(C(=O)CNC(=O)c3ccc(S(=O)(=O)Nc4ccccc4Oc4ccc(Cl)cc4Cl)cc3)CC2)C1` (stereo not shown) [Example 1.5, 4-[2-(2,4-Dichloro-phenoxy)-phenylsulfamoyl]-N-{2-[4-(1-methyl-piperidin-3-ylmethyl)-piperazin-1-yl]-2-oxo-ethyl}-benzamide], the IC50 in assay [1] (setting [3]) is less than 0.02 µM. Further, the Ki in assay [2] (setting [4]) was less than 0.02 µM.
On to `CN(C)CCCN1CCN(C(=O)CNC(=O)c2ccc(S(=O)(=O)Nc3ccccc3Oc3ccccc3)cc2)CC1` [Example 2.6, N-{2-[4-(3-Dimethylamino-propyl)-piperazin-1-yl]-2-oxo-ethyl}-4-(2-phenoxy-phenylsulfamoyl)-benzamide], for which, in assay [1] (setting [3]), the IC50 was less than 0.02 µM. Moreover, in assay [2] (setting [4]), the Ki was less than 0.02 µM.
Take `O=C(NCC(=O)N1CCN(CCN2CCCCC2)CC1)c1ccc(S(=O)(=O)Nc2ccccc2Oc2ccc(Cl)cc2Cl)cc1` [Example 1.13, 4-[2-(2,4-Dichloro-phenoxy)-phenylsulfamoyl]-N-{2-oxo-2-[4-(2-piperidin-1-yl-ethyl)-piperazin-1-yl]-ethyl}-benzamide]: the IC50 in assay [1] (setting [3]) was less than 0.02 µM. Further, in assay [2] (setting [4]), the Ki is less than 0.02 µM.
As for `O=C(NCC(=O)N1CCCCCC1)c1ccc(S(=O)(=O)Nc2ccccc2C(=O)c2ccccc2)cc1` [Example 3.4, N-(2-Azepan-1-yl-2-oxo-ethyl)-4-(2-benzoyl-phenylsulfamoyl)-benzamide], the IC50 in assay [1] (setting [3]) was less than 0.02 µM. In addition, the Ki in assay [2] (setting [4]) was less than 0.02 µM.
As to `O=C(NCC(=O)N1CCC(O)CC1)c1ccc(S(=O)(=O)Nc2ccccc2C(=O)c2ccccc2)cc1` [Example 3.16, 4-(2-Benzoyl-phenylsulfamoyl)-N-[2-(4-hydroxy-piperidin-1-yl)-2-oxo-ethyl]-benzamide], the IC50 in assay [1] (setting [3]) was less than 0.02 µM. For the same molecule, in assay [2] (setting [4]), the Ki is less than 0.02 µM.
Take `CN1CCN(C(=O)C2CCN(S(=O)(=O)c3ccc(NCC(c4ccccc4)c4ccccc4)c(C(=O)N4CCOCC4)c3)CC2)CC1` [NVP-SAA164, 4-{2-[(2,2-diphenyl-ethyl)-amino]-5-{-4-[4-[(4-methyl-1-piperazinyl)-carbonyl]-1-piperidinyl]-sulfonyl}-benzoyl}-morfoline, reference compound]: in assay [1] (setting [5]), the IC50 turned out to be 0.033 µM. Besides, the Ki in assay [2] (setting [6]) was found to be 0.008 µM.
For the molecule `O=C(NCC(=O)N1CCCCC1)c1ccc(S(=O)(=O)Nc2ccccc2C(=O)c2ccccc2)cc1` [Example 3.3, 4-(2-Benzoyl-phenylsulfamoyl)-N-(2-oxo-2-piperidin-1-yl-ethyl)-benzamide], the IC50 in assay [1] (setting [3]) was less than 0.02 µM. In assay [2] (setting [4]), the Ki was less than 0.02 µM.
As to `CCCN1C(=O)[C@H](NC(=O)Nc2ccc(N3CCC(N4CCCCC4)CC3)cc2)N=C(c2ccc(C)cc2)c2ccccc21` [compound 3, N-[4-(,4′-bipiperidin)-1′-ylphenyl]-N′-[(3R)-2,3-dihydro-5-(4-methyl-phenyl)-2-oxo-1-propyl-1H-1,4-benzodiazepin-3-yl]-urea, reference compound], the IC50 in assay [1] (setting [5]) was 0.0645 µM. Further, the Ki in assay [2] (setting [6]) came to 0.0134 µM.
In the case of `O=C(NCC(=O)N1CCN(CCCN2CCCCC2)CC1)c1ccc(S(=O)(=O)Nc2ccccc2Oc2ccc(Cl)cc2Cl)cc1` [Example 1.9, 4-[2-(2,4-Dichloro-phenoxy)-phenylsulfamoyl]-N-{2-oxo-2-[4-(3-piperidin-1-yl-propyl)-piperazin-1-yl]-ethyl}-benzamide], in assay [1] (setting [3]), the IC50 was less than 0.02 µM. Besides, the Ki in assay [2] (setting [4]) was less than 0.02 µM.
